{"source": "patent US20100190694A1", "about": "“Methods for identifying patients who will respond well to cancer treatment” (priority 2009, published 2010)", "system": "advanced solid tumors", "assay": "Phase I study: efficacy by RECIST, treatment duration, TTP", "type": "in vivo, human", "settings": "Pat 101-6, esophageal adenoca, before study", "source_text": "Phase I dose-escalation, multi-center study with the objectives to assess: • maximum tolerated dose and dose limiting toxicities (DLT) of Bel in combination with FU • impact of Bel on expression of TS, dihydropyrimidine dehydrogenase (DPD), and p21, in tumor and non-tumor surrogate tissue (peripheral blood mononuclear cells; PBMC) • preliminary anti-tumor activity of Bel in combination with FU • impact of Bel on ECG parameters • pharmacokinetics (PK) of Bel when given in combination with FU\nTreatment cycles of 21 days included Bel alone in cycle 1, and Bel in combination with FU in all subsequent cycles (FIG. 4). Treatment was to continue until significant treatment-related toxicity or progressive disease. […]\nDLTs, i.e. grade ¾ non-hematologic toxicities and grade 4 neutropenia or thrombocytopenia, were determined in cycles 1 and 2. Safety was assessed by NCI CTC (v. 3) and efficacy by RECIST criteria. Expression of TS, DPD, and p21 mRNA was measured by RTQ-PCR in PBMC (20 patients at baseline, and pre-dosing, 6 and 24-hours post-dosing, on days 1 and 4 in cycle 1) and in tumor biopsies (8 patients at baseline and once on days 4 or 5 in cycle 1). Results were expressed as gene expression relative to actin (i.e. TS/Actin Relative Gene Expression, DPD/Actin Relative Gene Expression, and p21/Actin Relative Gene Expression)."}
{"compound": "CC(=O)O[C@H]1C(=O)[C@@]2(C)[C@H]([C@H](OC(=O)c3ccccc3)[C@]3(O)C[C@H](OC(=O)[C@H](O)[C@@H](NC(=O)c4ccccc4)c4ccccc4)C(C)=C1C3(C)C)[C@]1(OC(C)=O)CO[C@@H]1C[C@@H]2O", "note": "[paclitaxel]", "values": [{"measurement": "TTP on most recent prior line of therapy", "value": "(12.0 weeks)"}]}
